Values of other authors, collected in PMC2686615 (International Immunology, 2009).

Key:
HLA-DQ transgenic mice = settings: immunization with peptides; cited from earlier work
NOD.DQ8 mice = settings: oral response to gliadin, 26 peptides tested; cited from earlier work

Row | Sequence | T cell response (HLA-DQ transgenic mice) | T cell response (NOD.DQ8 mice)
1 | ENVVVKVYTV [allergen P2 102–110] | elicited T cell responses | –
2 | QSTYQLLQE [gliadin 147–155] | – | negative
3 | VVTVKVMGD [allergen P2 105–113] | failed to stimulate T cell responses | –
